Experimental data from patent US10105552B2, “Formulations of histone deacetylase inhibitor and uses thereof” (Pharmacyclics LLC, priority 2009, dated 2018).

Assays:
[1] = Phase 1 trial, safety/tolerability and response by oral dosing schedule; type: in vivo
Method: This is a Phase 1 dose-escalation study of the safety, pharmacokinetics, and pharmacodynamics of Compound 1, HCl administered orally in patients with advanced cancer.
In the Phase 1 dose escalation study, up to 7 cohorts will receive Compound 1, HCl orally at doses starting at 30 mg/m^2, approximately 4-6 hours apart, up to 90 mg/m^2, 2 or 3 times a day according to 3 different dosing schedules within 28 day cycle (5 days of dosing followed by 2 days of no dosing; 5 days of dosing followed by 9 days of no dosing; 7 days of dosing followed by 7 days of no dosing) until the maximum tolerated dose is reached.
The doses were given at the same time each day. […] The two doses were given at the same time each day, with the second dose being administered approximately 4 to 6 hours from the first dose.
In the event that a patient experiences a treatment-related decrease in platelets to <25,000 per mm^2, the severity of the thrombocytopenia may be ameliorated by dosing in cycles consisting 5 consecutive days of oral dosing followed by 9 consecutive days without dosing.

[2] = tested on: Neuroblastoma cell lines and patient-derived primary neuroblastoma cultures; test: Neuroblastoma cell viability, calcein AM assay; type: cell-based; details: 48 hours treatment
Method: Neuroblastoma cell lines and patient-derived primary neuroblastoma cultures were treated with bortezomib, Compound 1 alone or a combination of both agents for 48 hours. Cells were also treated with HDAC inhibitors vorinostat, sodium butyrate, and valproic acid and viability was assessed by calcein AM assays. mRNA from treated cells was evaluated at 6 and 24 hours using U133+ mRNA expression arrays and Ingenuity analysis. Dichlorofluorescein (DCF) was used to measure reactive oxygen species (ROS). Cell viability assays were repeated in the presence of N-acetylcysteine (NAC). Western blot evaluated caspase-3 and PARP cleavage. Nude mice were injected with 10^7 SMS-KCNR cells subcutaneously and treated with daily doses of 0.5 mg/kg bortezomib, 12.5 mg/kg Compound 1, or a combination of the two agents. Tumors were measured and imaged twice per week.

[3] = tested on: lung, colon, prostate, pancreatic and brain tumors; test: Preclinical mouse tumor models; type: in vivo
[4] = Clinical trial PK of Compound 1 solution, oral and IV dosing; details: human, in vivo, humans
Method: In clinical trials involving humans with cancer, Compound 1 in solution form was administered at 2 mg/kg as a single oral dose and as multiple 2-hour IV infusion doses.
Compound 1 appears to be preferentially absorbed in the intestines.

tumor cell lines = test: Preclinical activity against tumor cell lines; type: cell-based; details: many tumor cell lines
RAD51 = test: Pre-clinical models, DNA repair gene expression
[5] = tested on: primary human tumors from patients with colon, ovarian, lung and many hematological cancers; test: Ex vivo activity in primary human tumors; type: cell-based

| Structure (SMILES) | therapeutic effect ([1]; immediate release capsule, 2 or 3 consecutive doses each 4 to 6 hours apart on dosing days) | incidence of Grade 4 thrombocytopenia (platelet count <25,000 per mm^2) ([1]; in vivo, po) | pharmacodynamic response ([1]; solid tumor and lymphoma patients, cycles of 7 days oral dosing then 7 days without dosing) | IC50 [2] | efficacy in mouse tumor models [3] | bioavailability ([4]; 2 mg/kg, immediate release capsules or an oral solution) | bioavailability ([4]; from AUC0-∞ oral vs IV, 2 mg/kg solution) | activity against tumor cell lines (tumor cell lines) | effect on RAD51 (and other DNA repair genes) (RAD51) | ex vivo activity in primary human tumors [5] |
| --- | --- | --- | --- | --- | --- | --- | --- | --- | --- | --- |
| CN(C)Cc1c(C(=O)NCCOc2ccc(C(=O)NO)cc2)oc2ccccc12 [Compound 1, N-hydroxy-4-{2-[3-(N,N-dimethylaminomethyl)benzofuran-2-ylcarbonylamino]ethoxy}-benzamide] | achieved | limited incidence | achieved | < 200 nM | efficacious | ~27% | ~27% | active | able to turn off RAD51 | active |
| CC(C)C[C@H](NC(=O)[C@H](Cc1ccccc1)NC(=O)c1cnccn1)B(O)O [bortezomib, reference compound] |  |  |  | < 50 nM |  |  |  |  |  |  |
